Laboratory results published in ChEMBL document CHEMBL4043296 (J Med Chem, 2018).

How the values were obtained:
[1] = biological target: T1, Muscarinic acetylcholine receptor M2 (Homo sapiens, UniProt P08172); assay: Displacement of [3H]NMS from human muscarinic M2 receptor expressed in CHO cell membranes after 2 hrs by liquid scintillation counting method
T1 sequence (P08172 whole entry): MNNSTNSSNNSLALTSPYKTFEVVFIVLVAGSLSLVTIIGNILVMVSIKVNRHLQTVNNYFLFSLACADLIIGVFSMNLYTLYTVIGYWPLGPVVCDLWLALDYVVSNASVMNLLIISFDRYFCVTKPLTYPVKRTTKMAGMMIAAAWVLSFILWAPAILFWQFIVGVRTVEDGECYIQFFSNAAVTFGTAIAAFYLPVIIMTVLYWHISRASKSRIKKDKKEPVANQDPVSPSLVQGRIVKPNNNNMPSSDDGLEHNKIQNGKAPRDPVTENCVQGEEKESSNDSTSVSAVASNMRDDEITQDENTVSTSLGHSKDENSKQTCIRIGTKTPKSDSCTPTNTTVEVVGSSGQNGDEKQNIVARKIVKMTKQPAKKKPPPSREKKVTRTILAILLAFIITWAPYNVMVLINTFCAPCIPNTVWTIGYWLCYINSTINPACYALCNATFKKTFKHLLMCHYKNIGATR

[2] = biological target: Muscarinic acetylcholine receptor M3 (Homo sapiens, UniProt P20309); assay: Displacement of [3H]NMS from human muscarinic M3 receptor expressed in CHO cell membranes after 2 hrs by liquid scintillation counting method
[3] = biological target: T2, Muscarinic acetylcholine receptor M5 (Homo sapiens, UniProt P08912); assay: Displacement of [3H]NMS from human muscarinic M5 receptor expressed in CHO cell membranes after 2 hrs by liquid scintillation counting method
T2 sequence (P08912 whole entry): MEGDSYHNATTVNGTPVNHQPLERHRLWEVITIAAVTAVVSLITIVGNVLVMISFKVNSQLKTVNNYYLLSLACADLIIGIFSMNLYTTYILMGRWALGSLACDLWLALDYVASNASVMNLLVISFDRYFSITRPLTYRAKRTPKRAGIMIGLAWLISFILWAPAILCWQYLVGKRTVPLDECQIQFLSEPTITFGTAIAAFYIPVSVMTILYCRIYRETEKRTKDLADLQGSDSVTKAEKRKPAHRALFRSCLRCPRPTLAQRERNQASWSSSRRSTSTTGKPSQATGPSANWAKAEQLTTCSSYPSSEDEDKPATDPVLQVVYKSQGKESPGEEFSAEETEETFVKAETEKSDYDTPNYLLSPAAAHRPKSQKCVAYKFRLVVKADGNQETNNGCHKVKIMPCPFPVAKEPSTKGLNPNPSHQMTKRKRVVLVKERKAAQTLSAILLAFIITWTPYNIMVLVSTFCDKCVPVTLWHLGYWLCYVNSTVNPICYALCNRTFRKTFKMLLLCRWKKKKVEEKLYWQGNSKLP

[4] = biological target: T3, Alpha-1D adrenergic receptor (Homo sapiens, UniProt P25100); assay: Displacement of [3H]prazosin from human recombinant alpha-1D adrenergic receptor expressed in CHO cell membranes after 30 mins by liquid scintillation counting method
T3 sequence (P25100 whole entry): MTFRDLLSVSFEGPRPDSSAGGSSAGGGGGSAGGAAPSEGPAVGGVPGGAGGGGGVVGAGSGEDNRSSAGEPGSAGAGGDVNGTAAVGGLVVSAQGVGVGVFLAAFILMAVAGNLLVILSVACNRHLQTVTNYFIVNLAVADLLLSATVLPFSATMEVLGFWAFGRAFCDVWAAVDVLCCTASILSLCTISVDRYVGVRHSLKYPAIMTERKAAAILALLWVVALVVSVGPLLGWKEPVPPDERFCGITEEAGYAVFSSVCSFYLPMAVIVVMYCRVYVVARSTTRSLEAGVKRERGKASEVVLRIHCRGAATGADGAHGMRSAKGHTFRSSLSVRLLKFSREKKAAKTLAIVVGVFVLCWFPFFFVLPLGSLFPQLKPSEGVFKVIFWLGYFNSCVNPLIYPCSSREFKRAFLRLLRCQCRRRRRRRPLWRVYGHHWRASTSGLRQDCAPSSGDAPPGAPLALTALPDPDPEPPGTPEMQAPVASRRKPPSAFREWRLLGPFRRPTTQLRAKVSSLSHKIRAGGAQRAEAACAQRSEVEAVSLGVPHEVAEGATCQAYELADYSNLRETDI

[5] = biological target: Beta-1 adrenergic receptor (Homo sapiens, UniProt P08588); assay: Displacement of [3H]CGP12177 from human recombinant beta1 adrenergic receptor expressed in HEK293 cell membranes after 90 mins by beta counting method
[6] = biological target: T4, Muscarinic acetylcholine receptor M1 (Homo sapiens) (UniProt P11229); assay: (§1) Antagonist activity at human SP/Myc epitope-tagged muscarinic M1 receptor expressed in HEK293T cells assessed as inhibition of carbachol-induced mVenus-fused beta-arrestin2 recruitment preincubated for 15 mins followed by carbachol induction measured after 2 mins by BRET assay; assay type: cell-based; conditions: HEK-293T
T4 sequence (whole entry): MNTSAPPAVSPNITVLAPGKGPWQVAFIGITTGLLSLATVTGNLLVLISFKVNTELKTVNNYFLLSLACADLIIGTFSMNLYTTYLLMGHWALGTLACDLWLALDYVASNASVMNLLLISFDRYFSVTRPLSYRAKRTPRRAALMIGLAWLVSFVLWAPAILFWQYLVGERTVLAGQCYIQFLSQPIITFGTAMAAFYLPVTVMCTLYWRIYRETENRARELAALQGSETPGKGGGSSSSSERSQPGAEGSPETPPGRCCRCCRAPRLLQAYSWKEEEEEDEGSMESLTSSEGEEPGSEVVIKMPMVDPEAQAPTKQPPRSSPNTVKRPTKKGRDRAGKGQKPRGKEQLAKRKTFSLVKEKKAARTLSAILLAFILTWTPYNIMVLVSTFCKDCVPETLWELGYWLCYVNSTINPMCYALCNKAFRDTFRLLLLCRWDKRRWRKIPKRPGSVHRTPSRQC

[7] = biological target: T5, Muscarinic acetylcholine receptor M1 (Homo sapiens, UniProt P11229); assay: as §1; assay type: cell-based, HEK-293T
T5 sequence (P11229 whole entry): T4 sequence (whole entry)

MDR1 = assay: Apparent passive permeability across basolateral to apical side in MDCK2 cells expressing MDR1 at 3 uM after 60 mins by mass spectroscopy; assay type: ADME, cell-based, Canis lupus familiaris, MDCK-II; conditions: dog, MDCK-MDR1

Chain of Muscarinic acetylcholine receptor M3 (P20309 whole entry): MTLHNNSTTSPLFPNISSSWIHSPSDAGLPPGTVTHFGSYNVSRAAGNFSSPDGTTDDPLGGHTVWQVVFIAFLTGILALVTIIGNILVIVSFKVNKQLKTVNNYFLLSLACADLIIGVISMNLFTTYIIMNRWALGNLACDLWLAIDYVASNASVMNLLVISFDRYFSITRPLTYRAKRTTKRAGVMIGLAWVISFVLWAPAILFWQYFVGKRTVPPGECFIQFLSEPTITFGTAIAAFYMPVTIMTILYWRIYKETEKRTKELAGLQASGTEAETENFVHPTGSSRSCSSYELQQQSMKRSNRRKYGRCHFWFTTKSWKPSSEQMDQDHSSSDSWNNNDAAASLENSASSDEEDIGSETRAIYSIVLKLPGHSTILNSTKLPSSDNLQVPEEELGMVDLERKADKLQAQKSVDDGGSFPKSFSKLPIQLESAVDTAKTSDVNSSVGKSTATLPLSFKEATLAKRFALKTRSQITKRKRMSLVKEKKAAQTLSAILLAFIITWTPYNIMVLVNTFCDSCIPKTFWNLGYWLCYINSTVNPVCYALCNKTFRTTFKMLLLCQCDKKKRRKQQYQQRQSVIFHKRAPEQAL
Chain of Beta-1 adrenergic receptor (P08588 whole entry, the tested form may be a part): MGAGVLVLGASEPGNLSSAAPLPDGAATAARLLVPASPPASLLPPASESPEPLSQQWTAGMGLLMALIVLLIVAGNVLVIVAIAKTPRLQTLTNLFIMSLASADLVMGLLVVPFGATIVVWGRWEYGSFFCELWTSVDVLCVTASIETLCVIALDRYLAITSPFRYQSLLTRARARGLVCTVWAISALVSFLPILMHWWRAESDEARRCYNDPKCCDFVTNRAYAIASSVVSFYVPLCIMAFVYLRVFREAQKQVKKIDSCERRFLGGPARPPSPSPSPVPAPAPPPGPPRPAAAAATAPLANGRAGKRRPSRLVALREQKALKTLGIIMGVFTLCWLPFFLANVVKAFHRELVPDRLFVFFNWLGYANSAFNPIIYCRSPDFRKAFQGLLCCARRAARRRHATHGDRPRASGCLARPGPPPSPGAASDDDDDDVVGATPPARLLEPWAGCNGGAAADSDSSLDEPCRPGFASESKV

| SMILES | Ki [1] | Ki [2] | Ki [3] | Ki [4] | Ki [5] | Imax [6] | IC50 [7] | Papp B→A at 1 h, 3 µM (MDR1) |
| --- | --- | --- | --- | --- | --- | --- | --- | --- |
| O=C1CCc2ccccc2N1CCCN1CCC(Cc2ccccc2)CC1 | 0.794 µM | 3.02 µM | 3.72 µM | 0.302 µM | 10.2 µM | 71% | 1.2 µM | 20.9 ×10⁻⁶ cm/s |
| O=C1CCc2ccccc2N1CCCN1CCN(c2ccccc2)CC1 | 16.6 µM | 17.8 µM | 27.5 µM | 0.0912 µM | 32.4 µM | 53% | 0.832 µM | 19.7 ×10⁻⁶ cm/s |
